Experiments:
[1] = plasma protein binding, rat; type: in vitro ADME; details: in vitro
[2] = molecular target: T1, wtALK2 (Homo sapiens, UniProt Q04771); assay: wtALK2 functional assays; type: biochemical; details: several functional assays; read-out: wtALK2 activity potency (IC50)
T1 sequence (Q04771 21-509): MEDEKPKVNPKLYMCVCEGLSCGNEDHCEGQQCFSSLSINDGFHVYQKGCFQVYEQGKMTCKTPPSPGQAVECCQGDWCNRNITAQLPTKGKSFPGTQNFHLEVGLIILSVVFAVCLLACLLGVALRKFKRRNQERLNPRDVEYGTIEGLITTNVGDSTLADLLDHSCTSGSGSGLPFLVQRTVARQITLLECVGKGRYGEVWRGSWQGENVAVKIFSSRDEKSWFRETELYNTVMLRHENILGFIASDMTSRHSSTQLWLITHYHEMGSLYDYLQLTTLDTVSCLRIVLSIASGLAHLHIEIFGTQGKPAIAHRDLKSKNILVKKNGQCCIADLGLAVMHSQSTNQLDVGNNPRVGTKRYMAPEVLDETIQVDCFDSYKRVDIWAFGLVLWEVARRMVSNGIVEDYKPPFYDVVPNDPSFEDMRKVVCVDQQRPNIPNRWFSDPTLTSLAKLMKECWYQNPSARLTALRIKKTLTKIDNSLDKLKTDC

[3] = metabolism by liver S9 fraction; type: in vitro ADME; details: animal and human liver S9 fraction
[4] = molecular target: T2, CYP2B6 (Homo sapiens, UniProt P20813); assay: CYP inhibition in vitro; type: in vitro ADME
T2 sequence (P20813 1-491): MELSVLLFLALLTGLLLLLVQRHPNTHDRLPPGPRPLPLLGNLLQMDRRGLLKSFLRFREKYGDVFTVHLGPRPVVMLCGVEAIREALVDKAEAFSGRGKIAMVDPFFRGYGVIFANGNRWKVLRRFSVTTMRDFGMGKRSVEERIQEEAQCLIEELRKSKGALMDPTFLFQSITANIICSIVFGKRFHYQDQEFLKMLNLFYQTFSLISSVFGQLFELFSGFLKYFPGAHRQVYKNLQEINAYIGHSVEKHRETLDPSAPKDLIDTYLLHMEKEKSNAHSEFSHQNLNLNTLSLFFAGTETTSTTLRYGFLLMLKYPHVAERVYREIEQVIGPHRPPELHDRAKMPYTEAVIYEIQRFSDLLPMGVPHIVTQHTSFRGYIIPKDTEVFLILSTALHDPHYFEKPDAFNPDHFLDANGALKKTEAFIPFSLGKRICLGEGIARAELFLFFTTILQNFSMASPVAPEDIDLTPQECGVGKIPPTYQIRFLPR

Question: With `COc1cc(-n2cnc(Nc3nc(N4CCC[C@H]4C(N)=O)nc4sccc34)c2)cc(OC)c1OC.O=C(O)CC(O)(CC(=O)O)C(=O)O` [Compound A] as the compound, how does the plasma protein binding [1] read?
Answer: The plasma protein binding was ≥ 99.9%.

Question: What about the IC50 [2] of the same compound?
Answer: The IC50 was < 100 nM.

Question: And the “metabolism / human-specific metabolites” value [3]?
Answer: The value was “metabolized by animal and human liver S9 fraction with no apparent human-specific metabolites”.

Question: What about the CYP2B6 inhibition [4] of the same compound?
Answer: Its CYP2B6 inhibition is “not an inhibitor”.

Reference: patent US20240408096A1, “DOSING REGIMENS FOR ORAL ALK2 KINASE INHIBITORS” (BioCryst Pharmaceuticals, Inc., priority 2020, published 2024)
